Results as given in patent publication US11173144B2, “Adrenergic receptor modulating compounds and methods of using the same” (The Board of Trustees of the Leland Stanford Junior …, priority 2016, dated 2021).

Tests used:
[1] = Microsomal stability assay, mouse; details: 0.1 uM
[2] = system: LPS-induced TNF-α production in primary microglia; test: In vitro primary microglia TNF-α assay (LPS stimulation, ELISA); assay type: cell-based, rat; details: rat primary microglia, LPS 10 ng/ml, compound 10 μM, 4 h; read-out: inhibition of LPS-induced TNF-α production
From the text: Mixed glial cells are obtained from the cerebral cortex of Sprague Dawley rat pups at postnatal days 1-3. Briefly, neonates are euthanized by decapitation and their brain tissues are collected for isolation of cortex. The isolated cortex was then trypsinized, triturated, and placed onto tissue culture flasks in DMEM supplemented with 10% fetal bovine serum and 1% Penicillin/Streptomycin. After 10 days in vitro, microglia are harvested by gentle shaking of the growth flask, plated in a 96 well plate at a density of 30,000 cells/well, and incubated at 37° C. overnight. […] Following the 4 h incubation, cell media is collected and the concentration of TNF-α is measured by ELISA (Invitrogen, KRC3011) according to the manufacturer's instruction.
The effects of selected compounds on cellular inflammatory response to LPS are determined in primary microglia extracted from a rat. Briefly, mixed glial cells are obtained from the cerebral cortex of Sprague Dawley rat pups at postnatal days 1-3 and cultured in DMEM supplemented with 10% fetal bovine serum. After 7 days in vitro, microglia are harvested by gentle shaking of the growth flask and plated in a 96 well plate at the density of 3×10^4 cells/well. The cells are used following day. Effects of compounds on LPS-induced TNFα production are determined by incubating cells with LPS along with or without test compounds for 4 hours. Following the 4 hour incubation, cell media are collected and concentration of TNFα was measured by EUSA.

ADRB1 = ADRB1 (Homo sapiens (Human), UniProt P08588); test: cAMP assay (homogenous time-resolved fluorescence) in HEK-293 cells stably expressing human recombinant ADRB1; assay type: cell-based; details: Table 4
Protocol: Pharmacological effects of compounds at the cAMP pathway mediated by ADRB1 are evaluated by measuring cAMP production using the homogenous time-resolved fluorescence detection method with HEK-293 cells stably expressing human recombinant ADRB1. Briefly, cells are suspended in HBSS buffer completed with 20 mM HEPES (pH 7.4) and 500 μM IBMX (3-isobutyl-1-methylxanthine) and distributed at a density of 3×10^3 cells/well. […] The results are expressed as a percent of the maximum efficacy achieved with isoproterenol. Pharmacological effects of compounds at the cAMP pathway mediated by ADRB2 and ADRB3 are measured as described above using CHO cells stably expressing human recombinant ADRB2 and human SK-N-MC neurotumor cells endogenously expressing ADRB3, respectively.
After 30 minute incubation with compounds, the cells are lysed and the fluorescence donor (Europium-chelated-labeled cAMP tracer; Eu-cAMP tracer) and fluorescence acceptor (cAMP-specific monoclonal antibodies labeled with the ULight™ dye) are added. […] The results are expressed as a percent of the control response to 10 μM isoproterenol. For subtype selectivity determination, same procedure is performed using Chinese hamster ovary (CHO) cells stably expressing human β2-adrenergic receptors or SK-N-MC human neuroblastoma cell line expressing β3-adrenergic receptors.
ADRB1 EC50 from functional assay (nM)^a, Determined using the homogenous time-resolved fluorescence detection method with HEK-293 cells stably expressing human recombinant ADRB1. ADRB2 IC50 from binding assay(nM)^b, Determined using the Tag-lite Adrenoceptor Beta2 receptor ligand binding assay.

α1A adrenergic receptor = α1A adrenergic receptor (Homo sapiens (Human), UniProt P35348); test: CNS target panel screen: α1A adrenergic receptor; assay type: binding
From the text: From a drug development perspective, characterizing the off-target effects of lead compounds is an important issue, as interactions with off-target molecules may lead to undesirable side effects. Thus we screened xamoterol (S) and the key compound compound 43 against a panel of CNS relevant targets, including G-protein coupled receptor and transporters. […].

[3] = system: transient middle cerebral artery occlusion (tMCAO) model of stroke; test: tMCAO model of stroke, infarction volume; assay type: in vivo; details: rat tMCAO, 3 mg/kg, 21 days
Protocol: The tMCAO is performed on animal under isoflurane inhalation anesthesia (4% for induction and 1.5-2.5% for maintenance) in airoxygen mixture ratio 3:1. Ventral neck area is shaved by electric razor and disinfected using betadine followed by 70% ethanol solution. Subsequently, a midline incision is made in the ventral neck area, sharp and blunt dissection techniques are used to isolate left common carotid artery (CCA) and the internal and external carotid arteries (ICA and ECA, respectively). The proximal CCA is ligated below the bifurcation using 3-0 braided silk suture allowing enough room for filament insertion in the area between the ligation and bifurcation. Subsequently, ECA is ligated at its origin dose to the CCA bifurcation, so that the occipital artery stays proximal to the ligature. A microvessel dip is placed on ICA temporarily to avoid excessive bleeding during filament insertion. In order to occlude the origin of middle cerebral artery (MCA), a monofilament with silicon coated tip (0.39 mm diameter, 5-6 mm long) is then inserted into the CCA, the microvessel dip removed following filament advancement into the ICA 20 mm from the bifurcation through small, horizontal incision. The filament is secured in its place by a suture knot placed between the bifurcation and proximal CCA ligature. […]

C57bl/6J mice = test: Neurogenesis, doublecortin-immunoreactive neuroblast counts in dentate gyrus; details: 0.3 mg/kg subcutaneous daily from 3.5 to 6.0 months of age
[4] = system: tMCAO rat model of stroke; test: tMCAO model of stroke, Paw-Whisker test of sensorimotor function; assay type: in vivo; details: 3 mg/kg then 0.3 mg/kg daily subcutaneous, 28 days
Protocol: The tMCAO is performed on animal under isoflurane inhalation anesthesia (4% for induction and 1.5-2.5% for maintenance) in airoxygen mixture ratio 3:1. Ventral neck area is shaved by electric razor and disinfected using betadine followed by 70% ethanol solution. Subsequently, a midline incision is made in the ventral neck area, sharp and blunt dissection techniques are used to isolate left common carotid artery (CCA) and the internal and external carotid arteries (ICA and ECA, respectively). The proximal CCA is ligated below the bifurcation using 3-0 braided silk suture allowing enough room for filament insertion in the area between the ligation and bifurcation. Subsequently, ECA is ligated at its origin dose to the CCA bifurcation, so that the occipital artery stays proximal to the ligature. A microvessel dip is placed on ICA temporarily to avoid excessive bleeding during filament insertion. In order to occlude the origin of middle cerebral artery (MCA), a monofilament with silicon coated tip (0.39 mm diameter, 5-6 mm long) is then inserted into the CCA, the microvessel dip removed following filament advancement into the ICA 20 mm from the bifurcation through small, horizontal incision. […] Sensorimotor function was measured by the Paw-Whisker test (vibrissae-evoked forelimb placing) once a week until 4 weeks post stroke. […]

ADRB1, sequence (P08588 whole entry): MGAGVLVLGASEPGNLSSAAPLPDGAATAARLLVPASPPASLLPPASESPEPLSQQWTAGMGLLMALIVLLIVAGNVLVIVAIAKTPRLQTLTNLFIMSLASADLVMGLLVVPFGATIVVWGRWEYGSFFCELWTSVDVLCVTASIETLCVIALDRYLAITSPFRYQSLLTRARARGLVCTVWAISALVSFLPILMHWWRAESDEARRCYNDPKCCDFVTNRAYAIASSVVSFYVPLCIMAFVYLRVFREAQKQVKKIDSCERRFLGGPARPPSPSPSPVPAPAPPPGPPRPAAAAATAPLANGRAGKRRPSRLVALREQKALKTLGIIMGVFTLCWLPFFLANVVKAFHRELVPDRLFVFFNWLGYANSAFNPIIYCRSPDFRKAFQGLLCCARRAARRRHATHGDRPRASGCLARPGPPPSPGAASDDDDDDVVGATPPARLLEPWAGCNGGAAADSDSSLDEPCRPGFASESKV
α1A adrenergic receptor, sequence (P35348 whole entry): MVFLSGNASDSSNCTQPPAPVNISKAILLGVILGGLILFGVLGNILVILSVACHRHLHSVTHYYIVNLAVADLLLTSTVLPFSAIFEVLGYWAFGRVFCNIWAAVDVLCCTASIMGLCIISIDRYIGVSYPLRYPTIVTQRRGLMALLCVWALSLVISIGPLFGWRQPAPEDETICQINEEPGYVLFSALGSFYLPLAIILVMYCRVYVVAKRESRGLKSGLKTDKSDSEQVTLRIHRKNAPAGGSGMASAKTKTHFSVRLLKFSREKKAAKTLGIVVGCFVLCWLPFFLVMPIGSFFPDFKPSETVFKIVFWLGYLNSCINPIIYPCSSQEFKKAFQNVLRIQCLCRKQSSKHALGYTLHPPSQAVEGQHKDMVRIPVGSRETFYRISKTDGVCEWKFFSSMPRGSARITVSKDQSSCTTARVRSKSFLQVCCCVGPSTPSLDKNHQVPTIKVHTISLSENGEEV

Structure (SMILES): COc1ccccc1OCCNC[C@H](O)COc1ccc(O)cc1 [Compound 43]
- compound remaining after 60 minutes in mouse liver microsomes [1]: 62.8%
- inhibition at 10 µM [2]: ~55%
- Emax (ADRB1; HEK293, 0.5 h, percent efficacy compared to the maximum response achieved with isoproterenol, read-out: cAMP pathway % Iso max): 83.3 ± 15.7%
- EC50 (ADRB1; read-out: cAMP pathway ADRB1 EC50): 10 to 100 nM
- affinity for α1A adrenergic receptor (α1A adrenergic receptor): significant affinity

Structure (SMILES): O=C(NCCNCC(O)COc1ccc(O)cc1)N1CCOCC1 (centres unmarked) [Xamoterol, reference compound]
- infarction volume [3]: reduces infarction volume
- neurogenesis (neuroblast counts in dentate gyrus) (C57bl/6J mice): increases neurogenesis
- sensorimotor function [4]: improves sensorimotor function
